System: FAM-(CUG)10-BHQ (RNA, repeat) GCGCUGCUGCUGCUGCUGCUGAAAAGCUGCUGCUGCUGCUGCGC
Assay: FAM/BHQ fluorescence thermal melting
Conditions: 5 μM compound

ΔTm: 3.1 ± 0.7 °C
SMILES: CC1CCCn2cc(-c3cccc(NC(=O)CCCCCCNCCCCNCCCCCCC(=O)Nc4cccc(-c5cn6c(n5)C(C)CCC6)c4)c3)nc21 (stereo not shown)

Reference: paper PMC12455570 (2025)
